From ChEMBL document CHEMBL3399993, “Design and synthesis of novel quinoline-aminopiperidine hybrid analogues as Mycobacterium tuberculosis DNA gyraseB inhibitors” (Bioorg Med Chem, 2015)
Converted amounts (≈) assume the structure as drawn.

Tested on: Mycobacterium tuberculosis
Assay: Antimycobacterial activity against extensively drug resistant Mycobacterium tuberculosis
Assay type: functional

SMILES	MIC [µM]
COc1ccc2nc(C)cc(N3CCC(NC(=S)Nc4ccc(Cl)cc4)CC3)c2c1	6.94 (≈ 3.06 µg/mL)
Cc1cc(N2CCC(NC(=O)Nc3ccc(F)cc3)CC2)c2cc(F)ccc2n1	3.82 (≈ 1.51 µg/mL)
COc1ccc2nc(C)cc(N3CCC(NC(=S)Nc4ccc([N+](=O)[O-])cc4)CC3)c2c1	1.72 (≈ 0.777 µg/mL)
COc1ccc2nc(C)cc(N3CCC(NC(=S)Nc4ccccc4)CC3)c2c1	7.62 (≈ 3.1 µg/mL)
